Assay results reported in US20140120060A1, “TREATMENT OF RHEUMATOID ARTHRITIS AND ASTHMA USING PI3 KINASE INHIBITORS” (INFINITY PHARMACEUTICALS, INC., priority 2012, published 2014).
Where “and” joins values, the source holds several entries; their conditions need not be identical. Equal values may be shown once. Entries after “also recorded” stand apart in the source; their conditions may differ.

Tests used:
[1] = Pharmacokinetics in cynomolgus monkeys; format: in vivo, monkey
[2] = test system: developing adjuvant arthritis; assay: Freund's complete adjuvant induced rat model of arthritis; format: in vivo
Description: Freund's complete adjuvant induced arthritis in the rat is an experimental model of polyarthritis that has been widely used for nonclinical testing of numerous anti-arthritic agents that are either under nonclinical or clinical investigation, or are currently used as therapeutics in this disease.

[3] = test system: DTH ear swelling; assay: Murine model of delayed type hypersensitivity (DNFB); format: in vivo
Experimental: The animals were subsequently challenged with DNFB on the pinna of the ear on day 5 to initiate an inflammatory reaction that was measured 24 hours later.

[4] = test system: neutrophil migration; assay: Neutrophil migration into rat air pouches stimulated with IL-8; format: in vivo
Description: In one embodiment, provided herein is a method for screening for anti-inflammatory or anti-asthma compound in an animal (e.g., rat) pouch assay. In one embodiment, provided herein is a method for screening for anti-inflammatory or anti-asthma compound comprising (a) creating a pouch at the back of an animal (e.g., rat) and introducing a stimuli into the pouch; (b) administrating a compound to the animal; (c) measuring the influx of leukocyte (e.g., neutrophil and/or eosinophil) into the pouch; and (d) comparing the influx of leukocyte to that of a control vehicle; wherein a reduction in the influx of leukocyte indicates the compound is an anti-inflammatory or anti-asthma compound.
The ability of PI3K-δ,γ inhibitors to block leukocyte (e.g., neutrophil) migration was examined in a rat air pouch model. Air pouches were created by subcutaneous air injections into the back of the rats on Days 0 and 3. […] Animals dosed with vehicle only, with or without IL-8 stimulation, served as study controls.

[5] = Pharmacokinetics in Sprague-Dawley rats; format: in vivo, rat
[6] = 13-week repeat-dose safety study in cynomolgus monkeys; conditions: both sexes, cynomolgus monkey, in vivo, oral, Day 91, combined sexes, 5 mg/kg/day, read-out: mean AUC0-24 hr at the NOAEL
Experimental: The no observed adverse effect level (NOAEL) in the 13-week rat study was 25 mg/kg/day (150 mg/m^2/day) and the NOAEL in the 13-week monkey study was 5 mg/kg/day (60 mg/m^2/day). On Day 91, the mean AUC0-24 hr values for combined sexes at the NOAELs were 14150 ng*h/mL in the rat, and 4015 ng*h/mL in the monkey.

[7] = test system: central nervous system; assay: Neurofunctional study (FOB, motor activity) in Sprague-Dawley rat; conditions: male rats
[8] = In vivo rat micronucleus assay
[9] = test system: TLR9; assay: CPG-A induced cytokine production in PBMCs; format: cell-based, human
Experimental: Human PBMCs were stimulated with CPG-A. CPG-A selectively activates PDCs, inducing IFN-α production via TLR9. IFN-α is a PDC cell selective readout. Primary human PBMCs from two normal human donors were used as a source of PDC cells. 200 K cells per well were used. […] Then the cells were treated with the specified concentration of CPG-A for 16 hours. RPMI-5% serum was employed.
These experiments were conducted using PBMCs.

[10] = test system: Human B-cell; assay: Human B-cell proliferation; format: cell-based
[11] = Pharmacokinetics in BALB/c mice; format: in vivo, mouse
[12] = test system: developing or established type II collagen arthritis; assay: Rat collagen-induced arthritis model, alone or in combination with methotrexate or etanercept; format: in vivo; conditions: 2.5, 5 or 50 mg/kg daily oral, alone or in combination with MTX or etanercept
Experimental: Treatment was administered either alone or in combination with the reference compounds MTX, or etanercept. All rats were administered MTX, vehicle 2 (1% CMC in water), or vehicle 1 on days 0-20 in order to keep dose manipulations consistent for all groups. Animals were terminated on day 21. Efficacy evaluation was based on daily ankle caliper measurements, ankle diameter expressed as area under the curve (AUC), and terminal hind paw weights.

[13] = test system: ovalbumin-induced lung inflammation; assay: Ovalbumin-induced murine model of asthma
[14] = test system: PG-PS model of arthritis; assay: Rat mono-articular PG-PS model; format: in vivo
Experimental: Animals are initially randomized into groups based on body weight but any with no ankle swelling following priming are eliminated from the groups to be reactivated. 10/group are retained into the primary treatment groups. The remaining animals are the baseline controls (Group 1).
Rats that have ankle inflammation are allowed to recover for two weeks, and then the swelling is reactivated (day 0) by a tail vein injection of 0.5 ml of 0.4 mg/ml PG-PS. Treatment with the test compounds is given QD the day prior to reactivation on day 0 and then daily.
Animals have caliper measures and paw volumes taken of ankles on day −3 (prior to reactivation on day 0 in the AM) and then on days 1, 2, 3, 4 (2 hrs post-dose) to determine if any anti-inflammatory effects are present in treated rats.
Scoring of Joints: PGPS ankles or knees are given scores of 0-5 for inflammation and bone resorption according to the following criteria: […]

[15] = monkey, in vivo, cynomolgus monkeys, IV 1 mg/kg
[16] = monkey, in vivo, cynomolgus monkeys, PO 5 mg/kg suspension

In the case of `C[C@H](Nc1ncnc2[nH]cnc12)c1cc2cccc(Cl)c2c(=O)n1-c1ccccc1` [Compound 292], the Foral ([1]; cynomolgus monkeys, PO 5 mg/kg suspension) is reported as 40%, the AUC(0-inf) [1, 15] is reported as 2380 ng·h/mL and the AUC(0-t) [1, 15] is reported as 2360 ng·h/mL. It also gave a Tmax [1, 15] of 0.083 h, a clearance [1, 15] of 7.17 mL/min/kg and a half-life ([1]; monkey, in vivo, cynomolgus monkeys, IV 1 mg/kg, read-out: T1/2 (converted)) of 5 h. It also gave a Vd ([1]; monkey, in vivo, cynomolgus monkeys, IV 1 mg/kg, read-out: Vss) of 1.27 L/kg, an AUC(0-inf) [1, 16] of 4680 ng·h/mL and an AUC(0-t) [1, 16] of 4600 ng·h/mL. It also gave a Cmax [1, 16] of 1330 ng/mL, a Tmax [1, 16] of 1.5 h and a half-life ([1]; monkey, in vivo, cynomolgus monkeys, PO 5 mg/kg suspension, read-out: T1/2 (converted)) of 5.4 h. The half-life ([1]; monkey, in vivo, monkeys, read-out: half-life (converted)) was 5 h, the “reduction of final paw weights” value ([2]; 5 mg/kg BID) was 30% and the “reduction of histopathologic bone resorption” value ([2]; 5 mg/kg BID) was 72%. For the same compound, the “reduction of histopathologic inflammation” value ([2]; 5 mg/kg BID) was 18%, the “inhibition of ankle diameter AUC (d7-14) increase” value (from here on “inhibition … (d7-14) increase”) ([2]; 5 mg/kg BID PO days 5-14) was 24% and the “reduction of final paw weights” value ([2]; 10 mg/kg QD) was 23%. For the same compound, the “reduction of histopathologic bone resorption” value ([2]; 10 mg/kg QD) was 67%, the “reduction of histopathologic inflammation” value ([2]; 10 mg/kg QD) was 15% and the “inhibition … (d7-14) increase” value ([2]; 10 mg/kg QD PO days 5-14) was 31%. The “reduction of final paw weights” value ([2]; 50 mg/kg QD) was 98%, the “reduction of histopathologic bone resorption” value ([2]; 50 mg/kg QD) was 100% and the “reduction of histopathologic inflammation” value ([2]; 50 mg/kg QD) was 88%. For the same compound, the “inhibition … (d7-14) increase” value ([2]; 50 mg/kg QD PO days 5-14) was 95%, the ear swelling ([3]; 0.3, 1, 3 and 10 mg/kg PO) was “Dose dependent inhibition” and the “inhibition of ear swelling vs vehicle control” value ([3]; highest dose group (10 mg/kg PO, 30 minutes prior to DNFB challenge)) was “approximately 50%”. For the same compound, the “neutrophil influx into IL-8 stimulated air pouches” value ([4]; 1 mg/kg PO) was “only slightly”, the “neutrophil influx into IL-8 stimulated air pouches” value ([4]; 10 and 25 mg/kg PO) was “inhibits; also recorded: significantly blocked” and the Foral ([5]; Sprague-Dawley rats, PO 10 mg/kg suspension) was 57%. For the same compound, the half-life ([5]; Sprague-Dawley, rat, in vivo, intravenous, 2 mg/kg) was under 2 h, the AUC(0-t) [6] was 4020 ng·h/mL and the locomotor activity ([7]; 2 h after a 350 mg/kg dose) was “Significant decreases”. The “effects on the central nervous system” value ([7]; dose levels ≦50 mg/kg) was “No effects”, the “qualitative or quantitative FOB parameters” value ([7]; single oral dose up to 350 mg/kg, up to 24 h post-dose) was “no changes” and the “adverse effect in micronucleus assay” value [8] was “no direct adverse effect”. For the same compound, the “CPG-A induced IL-6 production” value ([9]; PBMCs) was “Inhibited”, the “CPG-A induced IL-8 production” value ([9]; PBMCs) was “Inhibited” and the “CPG-A induced TNF-α production” value ([9]; PBMCs) was “Inhibited”. For the same compound, the “CPG-A induced IFN-α production” value ([9]; human PBMCs) was “potently inhibited; also recorded: blocked”, the EC50 [10] was 0.5 nM and the Foral ([11]; BALB/c mice, PO 10 mg/kg suspension, calculated using AUC0-last) was 7% and 7^i %. For the same compound, the half-life ([11]; BALB/c, mouse, in vivo, iv, 10 mg/kg) was under 2 h, the “effects on parameters of developing and established type II collagen arthritis” value [12] was “beneficial effects” and the tolerability [12] was “well tolerated”. For the same compound, the “leukocyte migration into the bronchoalveolar space” value ([13]; FIG. 15) was “inhibited”, the “eosinophil influx into the airway space (BAL fluid)” value ([13]; all doses tested, 0.03 to 10 mg/kg PO) was “significantly blocked” and the “lymphocyte and monocyte accumulation in BAL fluid” value ([13]; ovalbumin induced) was “reduced”. For the same compound, the “inflammation when reactivated with PG-PS” value ([14]; FIG. 14A) was “dose-dependently controlled inflammation” and the “joint pathology in PG-PS model” value ([14]; FIG. 14B) was “dose-dependently improved joint pathology”.
